{"source": "PubChem BioAssay (NCI)", "assay_in_all_cases": "inhibition of tumour cell growth, NCI panel, 48 h", "key": {"BT-549 breast": {"test_system": "BT-549 breast"}, "HOP-92 NSCLC": {"test_system": "HOP-92 NSCLC"}, "NCI-H226 lung": {"test_system": "NCI-H226 lung"}, "NCI-H23 lung": {"test_system": "NCI-H23 lung"}, "UACC-257 melanoma": {"test_system": "UACC-257 melanoma"}, "786-0 renal": {"test_system": "786-0 renal"}, "A498 renal": {"test_system": "A498 renal"}, "ACHN renal": {"test_system": "ACHN renal"}, "CAKI-1 renal": {"test_system": "CAKI-1 renal"}, "DU-145 prostate": {"test_system": "DU-145 prostate"}, "EKVX NSCLC": {"test_system": "EKVX NSCLC"}, "HCC-2998 colon": {"test_system": "HCC-2998 colon"}, "HCT-116 colon": {"test_system": "HCT-116 colon"}, "HCT-15 colon": {"test_system": "HCT-15 colon"}, "M14 melanoma": {"test_system": "M14 melanoma"}, "MALME-3M melanoma": {"test_system": "MALME-3M melanoma"}, "MDA-MB-231 breast": {"test_system": "MDA-MB-231 breast"}, "MDA-MB-435": {"test_system": "MDA-MB-435"}, "NCI-H522 lung": {"test_system": "NCI-H522 lung"}, "NCI/ADR-RES ovarian": {"test_system": "NCI/ADR-RES ovarian"}, "OVCAR-5 ovarian": {"test_system": "OVCAR-5 ovarian"}, "PC-3 prostate": {"test_system": "PC-3 prostate"}, "RXF 393 renal": {"test_system": "RXF 393 renal"}, "SF-295 CNS": {"test_system": "SF-295 CNS"}, "SF-539 CNS": {"test_system": "SF-539 CNS"}, "SK-MEL-2 melanoma": {"test_system": "SK-MEL-2 melanoma"}, "SK-MEL-28 melanoma": {"test_system": "SK-MEL-28 melanoma"}, "SK-MEL-5 melanoma": {"test_system": "SK-MEL-5 melanoma"}, "SK-OV-3 ovarian": {"test_system": "SK-OV-3 ovarian"}, "SN12C renal": {"test_system": "SN12C renal"}, "SNB-75 CNS": {"test_system": "SNB-75 CNS"}, "SR leukemia": {"test_system": "SR leukemia"}, "TK-10 renal": {"test_system": "TK-10 renal"}, "UACC-62 melanoma": {"test_system": "UACC-62 melanoma"}, "UO-31 renal": {"test_system": "UO-31 renal"}}, "note": "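Method: 48-hour compound exposure of cells in 96-well plates, five concentrations, linear interpolation of endpoints. GI50: concentration for 50% inhibition of growth. TGI: concentration producing complete growth inhibition.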", "data": [{"compound": "CCC1NC(=O)C(NC(=O)c2ncccc2O)C(C)OC(=O)C(c2ccccc2)NC(=O)C2CC(=O)CCN2C(=O)C(Cc2ccccc2)N(C)C(=O)C2CCCN2C1=O", "note": "(stereo unspecified)", "values": [{"measurement": "TGI", "setting": "BT-549 breast", "value": "> 100", "unit": "µM"}, {"measurement": "TGI", "setting": "HOP-92 NSCLC", "value": "> 100", "unit": "µM"}, {"measurement": "TGI", "setting": "NCI-H226 lung", "value": "> 100", "unit": "µM"}, {"measurement": "TGI", "setting": "NCI-H23 lung", "value": "> 100", "unit": "µM"}, {"measurement": "TGI", "setting": "UACC-257 melanoma", "value": "> 100", "unit": "µM"}]}, {"compound": "NCCCNc1nc2ccccc2c2c(=O)c3cccc(Cl)c3sc12", "values": [{"measurement": "GI50", "setting": "786-0 renal", "value": 1.61, "unit": "µM"}, {"measurement": "TGI", "setting": "786-0 renal", "value": 3.05, "unit": "µM"}, {"measurement": "GI50", "setting": "A498 renal", "value": 1.02, "unit": "µM"}, {"measurement": "TGI", "setting": "A498 renal", "value": 2.74, "unit": "µM"}, {"measurement": "GI50", "setting": "ACHN renal", "value": 1.41, "unit": "µM"}, {"measurement": "TGI", "setting": "ACHN renal", "value": 2.79, "unit": "µM"}, {"measurement": "GI50", "setting": "BT-549 breast", "value": 1.45, "unit": "µM"}, {"measurement": "TGI", "setting": "BT-549 breast", "value": 2.81, "unit": "µM"}, {"measurement": "GI50", "setting": "CAKI-1 renal", "value": 1.28, "unit": "µM"}, {"measurement": "TGI", "setting": "CAKI-1 renal", "value": 2.68, "unit": "µM"}, {"measurement": "GI50", "setting": "DU-145 prostate", "value": 1.74, "unit": "µM"}, {"measurement": "TGI", "setting": "DU-145 prostate", "value": 3.46, "unit": "µM"}, {"measurement": "GI50", "setting": "EKVX NSCLC", "value": 1.43, "unit": "µM"}, {"measurement": "TGI", "setting": "EKVX NSCLC", "value": 2.8, "unit": "µM"}, {"measurement": "GI50", "setting": "HCC-2998 colon", "value": 1.48, "unit": "µM"}, {"measurement": "TGI", "setting": "HCC-2998 colon", "value": 2.98, "unit": "µM"}, {"measurement": "GI50", "setting": "HCT-116 colon", "value": 1.34, "unit": "µM"}, {"measurement": "TGI", "setting": "HCT-116 colon", "value": 2.7, "unit": "µM"}, {"measurement": "GI50", "setting": "HCT-15 colon", "value": 1.64, "unit": "µM"}, {"measurement": "TGI", "setting": "HCT-15 colon", "value": 3.16, "unit": "µM"}, {"measurement": "GI50", "setting": "HOP-92 NSCLC", "value": 1.19, "unit": "µM"}, {"measurement": "TGI", "setting": "HOP-92 NSCLC", "value": 2.63, "unit": "µM"}, {"measurement": "GI50", "setting": "M14 melanoma", "value": 1.61, "unit": "µM"}, {"measurement": "TGI", "setting": "M14 melanoma", "value": 3.06, "unit": "µM"}, {"measurement": "GI50", "setting": "MALME-3M melanoma", "value": 1.57, "unit": "µM"}, {"measurement": "TGI", "setting": "MALME-3M melanoma", "value": 3, "unit": "µM"}, {"measurement": "GI50", "setting": "MDA-MB-231 breast", "value": 1.18, "unit": "µM"}, {"measurement": "TGI", "setting": "MDA-MB-231 breast", "value": 2.56, "unit": "µM"}, {"measurement": "GI50", "setting": "MDA-MB-435", "value": 1.73, "unit": "µM"}, {"measurement": "TGI", "setting": "MDA-MB-435", "value": 3.12, "unit": "µM"}, {"measurement": "GI50", "setting": "NCI-H23 lung", "value": 1.4, "unit": "µM"}, {"measurement": "TGI", "setting": "NCI-H23 lung", "value": 2.85, "unit": "µM"}, {"measurement": "GI50", "setting": "NCI-H522 lung", "value": 1.76, "unit": "µM"}, {"measurement": "TGI", "setting": "NCI-H522 lung", "value": 3.6, "unit": "µM"}, {"measurement": "GI50", "setting": "NCI/ADR-RES ovarian", "value": 1.71, "unit": "µM"}, {"measurement": "TGI", "setting": "NCI/ADR-RES ovarian", "value": 3.25, "unit": "µM"}, {"measurement": "GI50", "setting": "OVCAR-5 ovarian", "value": 1.55, "unit": "µM"}, {"measurement": "TGI", "setting": "OVCAR-5 ovarian", "value": 3.04, "unit": "µM"}, {"measurement": "GI50", "setting": "PC-3 prostate", "value": 1.52, "unit": "µM"}, {"measurement": "TGI", "setting": "PC-3 prostate", "value": 2.95, "unit": "µM"}, {"measurement": "GI50", "setting": "RXF 393 renal", "value": 1.47, "unit": "µM"}, {"measurement": "TGI", "setting": "RXF 393 renal", "value": 2.83, "unit": "µM"}, {"measurement": "GI50", "setting": "SF-295 CNS", "value": 1.71, "unit": "µM"}, {"measurement": "TGI", "setting": "SF-295 CNS", "value": 3.14, "unit": "µM"}, {"measurement": "GI50", "setting": "SF-539 CNS", "value": 1.63, "unit": "µM"}, {"measurement": "TGI", "setting": "SF-539 CNS", "value": 3.02, "unit": "µM"}, {"measurement": "GI50", "setting": "SK-MEL-2 melanoma", "value": 1.88, "unit": "µM"}, {"measurement": "TGI", "setting": "SK-MEL-2 melanoma", "value": 3.81, "unit": "µM"}, {"measurement": "GI50", "setting": "SK-MEL-28 melanoma", "value": 1.81, "unit": "µM"}, {"measurement": "TGI", "setting": "SK-MEL-28 melanoma", "value": 3.29, "unit": "µM"}, {"measurement": "GI50", "setting": "SK-MEL-5 melanoma", "value": 1.58, "unit": "µM"}, {"measurement": "TGI", "setting": "SK-MEL-5 melanoma", "value": 2.94, "unit": "µM"}, {"measurement": "GI50", "setting": "SK-OV-3 ovarian", "value": 1.45, "unit": "µM"}, {"measurement": "TGI", "setting": "SK-OV-3 ovarian", "value": 2.92, "unit": "µM"}, {"measurement": "GI50", "setting": "SN12C renal", "value": 1.52, "unit": "µM"}, {"measurement": "TGI", "setting": "SN12C renal", "value": 3.05, "unit": "µM"}, {"measurement": "GI50", "setting": "SNB-75 CNS", "value": 1.34, "unit": "µM"}, {"measurement": "TGI", "setting": "SNB-75 CNS", "value": 2.69, "unit": "µM"}, {"measurement": "GI50", "setting": "SR leukemia", "value": 0.606, "unit": "µM"}, {"measurement": "TGI", "setting": "SR leukemia", "value": 2.99, "unit": "µM"}, {"measurement": "GI50", "setting": "TK-10 renal", "value": 2.31, "unit": "µM"}, {"measurement": "TGI", "setting": "TK-10 renal", "value": 3.95, "unit": "µM"}, {"measurement": "GI50", "setting": "UACC-62 melanoma", "value": 1.67, "unit": "µM"}, {"measurement": "TGI", "setting": "UACC-62 melanoma", "value": 3.17, "unit": "µM"}, {"measurement": "GI50", "setting": "UO-31 renal", "value": 1.03, "unit": "µM"}, {"measurement": "TGI", "setting": "UO-31 renal", "value": 2.24, "unit": "µM"}]}]}
